Measured values from patent publication US12486302B2, “Somatostatin receptor antagonist compounds and methods of using the same” (CDRD VENTURES INC., priority 2016, dated 2025).
*1 amine or outer side, *2 acyl side, *3 side chain or, on linkers, in order; H or OH if unused. Where a SMILES comes first, the peptide text is derived from it. Bridges are numbered along the chain shown (N, C = ends). Side-chain parts run from the residue outwards. [ ]: non-standard residue; d: D form. The star is where a group is joined. ξ: configuration not given here. dPhe(4-CONH2) = NC(=O)c1ccc(C[C@@H](N)C(=O)O)cc1; dPhe(4-CH2NH2) = NCc1ccc(C[C@@H](N)C(=O)O)cc1; dPhe(4-NH2) = Nc1ccc(C[C@@H](N)C(=O)O)cc1; Phe(4-Cl) = N[C@@H](Cc1ccc(Cl)cc1)C(=O)O; d(hCit) = NC(=O)NCCCC[C@@H](N)C(=O)O; ξPhe(4-Cl) = NC(Cc1ccc(Cl)cc1)C(=O)O; Ethyl(2-morpholino) = C1CN(CC*)CCO1; dCit = NC(=O)NCCC[C@@H](N)C(=O)O; Cit = NC(=O)NCCC[C@H](N)C(=O)O; Lys(Me) = CNCCCC[C@H](N)C(=O)O; Succinamoyl = NC(=O)CCC(=O)*; ξY = NC(Cc1ccc(O)cc1)C(=O)O; CO = O=C([*:1])[*:2]; Bz = O=C(c1ccccc1)*; NHPh = c1ccc(N*)cc1

Key:
[1] = target: somatostatin type 2 (SSTR2) receptors (Homo sapiens, UniProt P30874); assay: PathHunter β-Arrestin assay, antagonist mode, SSTR2; format: cell-based; details: agonist challenge at EC80
Sequence of somatostatin type 2 (SSTR2) receptors (P30874 whole entry): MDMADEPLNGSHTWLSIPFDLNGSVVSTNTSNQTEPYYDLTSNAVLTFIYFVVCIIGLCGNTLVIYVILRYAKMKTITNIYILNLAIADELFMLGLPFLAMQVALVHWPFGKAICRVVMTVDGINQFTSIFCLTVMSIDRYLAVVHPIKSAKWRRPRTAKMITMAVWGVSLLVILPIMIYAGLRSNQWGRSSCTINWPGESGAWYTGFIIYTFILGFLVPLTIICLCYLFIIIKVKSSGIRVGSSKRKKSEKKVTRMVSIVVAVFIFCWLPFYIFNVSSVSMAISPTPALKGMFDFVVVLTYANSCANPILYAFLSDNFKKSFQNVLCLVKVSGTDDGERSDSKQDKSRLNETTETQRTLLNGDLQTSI
Summary of the method: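 Cells co-expressing PK-tagged human receptor and EA-β-Arrestin were pre-incubated with compound, then challenged with agonist at EC80. β-Gal complementation read by chemiluminescence; % inhibition normalized to EC80 and vehicle controls at 10 concentrations (log 3 steps from 1 μM down to 5e-5 μM), fitted for IC50.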

SSTR3 = SSTR3 (Homo sapiens, UniProt P32745); assay: PathHunter β-Arrestin assay, antagonist mode, SSTR3; format: cell-based; details: agonist challenge at EC80
Sequence of SSTR3 (P32745 whole entry, the tested form may be a part): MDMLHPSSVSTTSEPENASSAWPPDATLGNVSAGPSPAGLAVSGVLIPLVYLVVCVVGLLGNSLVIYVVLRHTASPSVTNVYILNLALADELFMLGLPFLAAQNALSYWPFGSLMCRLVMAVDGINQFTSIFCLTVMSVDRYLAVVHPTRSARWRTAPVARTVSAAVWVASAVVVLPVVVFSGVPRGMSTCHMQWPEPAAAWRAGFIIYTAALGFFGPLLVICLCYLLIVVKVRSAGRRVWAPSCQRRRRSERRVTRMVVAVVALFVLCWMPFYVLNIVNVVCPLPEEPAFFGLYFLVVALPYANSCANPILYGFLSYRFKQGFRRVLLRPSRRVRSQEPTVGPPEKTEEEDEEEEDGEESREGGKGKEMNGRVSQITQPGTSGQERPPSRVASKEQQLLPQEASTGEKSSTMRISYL
Description: The PathHunter® β-Arrestin assay monitors the activation of a GPCR in a homogenous, non-imaging assay format using a technology developed by DiscoveRx called Enzyme Fragment Complementation (EFC) with β-galactosidase (β-Gal) as the functional reporter. […] EA is fused to β-Arrestin and […] is fused to the GPCR of interest. When the GPCR is activated and β-Arrestin is recruited to the receptor, ED and EA complementation occurs, restoring β-Gal activity which is measured using chemiluminescent PathHunter® Detection Reagents. For antagonist determination, cells were pre-incubated with the compounds followed by agonist challenge at the EC80 concentration. Data was normalized to the maximal and minimal response observed in the presence of EC80 ligand and vehicle. Compound activity was analyzed using CBIS data analysis suite ChemInnovation, CA). Percentage inhibition was calculated using the following formula: % Inhibition=100%×(1−(mean signal of test sample-mean signal of vehicle control)/(mean signal of EC80 control-mean signal of vehicle control)). Percentage inhibition was calculated at 10 concentrations in steps on a Log 3 scale ranging from […] to 5e-5 μM. The results were plotted for IC50 calculation.

## C[C@@H](O)[C@@H]1NC(=O)[C@H](CCCCN)NC(=O)[C@@H](Cc2ccc(NC(=O)CN)cc2)NC(=O)[C@H](Cc2ccc(O)cc2)NC(=O)[C@H](NC(=O)[C@@H](N)Cc2ccc(Cl)cc2)CSSC[C@@H](C(=O)N[C@H](Cc2ccc(O)cc2)C(N)=O)NC1=O [Compound 8, H-Cpa-cyclo[DCys- Tyr-D-4-(Gly) Aph-Lys- Thr-Cys]-DTyr-NH2] (H-[Phe(4-Cl)][dC]Y[dPhe(4-NH2)](Gly)KTC[dY]-NH2; disulfide 2-7)
[1]
  IC50: 84 nM
SSTR3
  IC50: > 1000 nM

## C[C@@H](O)[C@@H]1NC(=O)[C@H](CCCCN)NC(=O)[C@@H](Cc2ccc(NC(=O)[C@@H](N)CCCCN)cc2)NC(=O)[C@H](Cc2ccc(O)cc2)NC(=O)[C@H](NC(=O)[C@@H](N)Cc2ccc(Cl)cc2)CSSC[C@@H](C(=O)N[C@H](Cc2ccc(O)cc2)C(N)=O)NC1=O [Compound 17, H-Cpa-cyclo[DCys- Tyr-D-4-(Lys) Aph-Lys-Thr- Cys]-DTyr-NH2] (H-[Phe(4-Cl)][dC]Y[dPhe(4-NH2)](Lys)KTC[dY]-NH2; disulfide 2-7)
[1]
  IC50: > 1000 nM
SSTR3
  IC50: > 1000 nM

## C[C@@H](O)[C@@H]1NC(=O)[C@H](CCCCN)NC(=O)[C@@H](Cc2ccc(NC(=O)[C@@H](N)CO)cc2)NC(=O)[C@H](Cc2ccc(O)cc2)NC(=O)[C@H](NC(=O)[C@@H](N)Cc2ccc(Cl)cc2)CSSC[C@@H](C(=O)N[C@H](Cc2ccc(O)cc2)C(N)=O)NC1=O [Compound 16, H-Cpa-cyclo[DCys- Tyr-D-4-(Ser) Aph-Lys-Thr- Cys]-DTyr-NH2] (H-[Phe(4-Cl)][dC]Y[dPhe(4-NH2)](Ser)KTC[dY]-NH2; disulfide 2-7)
[1]
  IC50: 234 nM
SSTR3
  IC50: > 1000 nM

## C[C@@H](O)[C@@H]1NC(=O)[C@H](CCCCN)NC(=O)[C@@H](Cc2ccc(NC(=O)[C@@H](N)CCC(N)=O)cc2)NC(=O)[C@H](Cc2ccc(O)cc2)NC(=O)[C@H](NC(=O)[C@@H](N)Cc2ccc(Cl)cc2)CSSC[C@@H](C(=O)N[C@H](Cc2ccc(O)cc2)C(N)=O)NC1=O [Compound 21, H-Cpa-cyclo[DCys- Tyr-D-4-(Gln)Aph- Lys-Thr-Cys]- DTyr-NH2] (H-[Phe(4-Cl)][dC]Y[dPhe(4-NH2)](Gln)KTC[dY]-NH2; disulfide 2-7)
[1]
  IC50: > 1000 nM
SSTR3
  IC50: > 1000 nM

## C[C@@H](O)[C@@H]1NC(=O)[C@H](CCCCN)NC(=O)[C@@H](CCCCNC(N)=O)NC(=O)[C@H](Cc2ccc(O)cc2)NC(=O)[C@H](NC(=O)[C@@H](N)Cc2ccc(Cl)cc2)CSSC[C@@H](C(=O)N[C@H](Cc2ccc(O)cc2)C(N)=O)NC1=O [Compound 2, H-Cpa-cyclo[DCys- Tyr-DHoCit-Lys- Thr-Cys]- DTyr-NH2] (H-[Phe(4-Cl)][dC]Y[d(hCit)]KTC[dY]-NH2; disulfide 2-7)
[1]
  IC50: 181 nM
SSTR3
  IC50: > 1000 nM

## CC(=O)NCc1ccc(C[C@H]2NC(=O)[C@H](Cc3ccc(O)cc3)NC(=O)[C@H](NC(=O)[C@@H](N)Cc3ccc(Cl)cc3)CSSC[C@@H](C(=O)N[C@H](Cc3ccc(O)cc3)C(N)=O)NC(=O)[C@H]([C@@H](C)O)NC(=O)[C@H](CCCCN)NC2=O)cc1 [Compound 6, H-Cpa-cyclo[DCys- Tyr-D-(4- acetamido- methyl)Phe- Lys-Thr-Cys]-DTyr- NH2] (H-[Phe(4-Cl)][dC]Y[dPhe(4-CH2NH2)](Ac)KTC[dY]-NH2; disulfide 2-7)
[1]
  IC50: 166 nM
SSTR3
  IC50: > 1000 nM

## C[C@@H](O)[C@@H]1NC(=O)[C@H](CCCCN)NC(=O)[C@@H](Cc2ccc(NC(=O)[C@@H](N)CCCNC(N)=O)cc2)NC(=O)[C@H](Cc2ccc(O)cc2)NC(=O)[C@H](NC(=O)[C@@H](N)Cc2ccc(Cl)cc2)CSSC[C@@H](C(=O)N[C@H](Cc2ccc(O)cc2)C(N)=O)NC1=O [Compound 22, H-Cpa-cyclo[DCys- Tyr-D-4-(Cit)Aph- Lys-Thr-Cys]- DTyr-NH2] (H-[Phe(4-Cl)][dC]Y[dPhe(4-NH2)](Cit)KTC[dY]-NH2; disulfide 2-7)
[1]
  IC50: 417 nM
SSTR3
  IC50: > 1000 nM

## CC(C)[C@H](N)C(=O)Nc1ccc(C[C@H]2NC(=O)[C@H](Cc3ccc(O)cc3)NC(=O)[C@H](NC(=O)[C@@H](N)Cc3ccc(Cl)cc3)CSSC[C@@H](C(=O)N[C@H](Cc3ccc(O)cc3)C(N)=O)NC(=O)[C@H]([C@@H](C)O)NC(=O)[C@H](CCCCN)NC2=O)cc1 [Compound 23, H-Cpa-cyclo[DCys- Tyr-D-4-(Val)Aph- Lys-Thr-Cys]- DTyr-NH2] (H-[Phe(4-Cl)][dC]Y[dPhe(4-NH2)](Val)KTC[dY]-NH2; disulfide 2-7)
[1]
  IC50: 458 nM
SSTR3
  IC50: > 1000 nM

## CC(=O)NCC(=O)Nc1ccc(C[C@H]2NC(=O)[C@H](Cc3ccc(O)cc3)NC(=O)[C@H](NC(=O)[C@@H](N)Cc3ccc(Cl)cc3)CSSC[C@@H](C(=O)N[C@H](Cc3ccc(O)cc3)C(N)=O)NC(=O)[C@H]([C@@H](C)O)NC(=O)[C@H](CCCCN)NC2=O)cc1 [Compound 9, H-Cpa-cyclo[DCys- Tyr-D-4-(Gly- Ac)Aph- Lys-Thr-Cys]- DTyr-NH2] (H-[Phe(4-Cl)][dC]Y[dPhe(4-NH2)]([Gly-Ac])KTC[dY]-NH2; disulfide 2-7)
[1]
  IC50: 104 nM
SSTR3
  IC50: > 1000 nM

## C[C@@H](O)[C@@H]1NC(=O)[C@H](CCCCN)NC(=O)[C@@H](Cc2ccc(NC(=O)[C@@H](N)CCC(=O)O)cc2)NC(=O)[C@H](Cc2ccc(O)cc2)NC(=O)[C@H](NC(=O)[C@@H](N)Cc2ccc(Cl)cc2)CSSC[C@@H](C(=O)N[C@H](Cc2ccc(O)cc2)C(N)=O)NC1=O [Compound 20, H-Cpa-cyclo[DCys- Tyr-D-4-(Glu)Aph- Lys-Thr-Cys]- DTyr-NH2] (H-[Phe(4-Cl)][dC]Y[dPhe(4-NH2)](Glu)KTC[dY]-NH2; disulfide 2-7)
[1]
  IC50: 924 nM
SSTR3
  IC50: > 1000 nM

## C[C@@H](O)[C@@H]1NC(=O)[C@H](CCCCN)NC(=O)[C@@H](Cc2ccc(OCCN3CCOCC3)cc2)NC(=O)[C@H](Cc2ccc(O)cc2)NC(=O)[C@H](NC(=O)[C@@H](N)Cc2ccc(Cl)cc2)CSSC[C@@H](C(=O)N[C@H](Cc2ccc(O)cc2)C(N)=O)NC1=O [Compound 13, H-Cpa-cyclo[DCys- Tyr-D-(2-(4- morpholinyl)ethyl) Tyr-Lys-Thr- Cys]-DTyr-NH2] (H-[Phe(4-Cl)][dC]Y[dY](Ethyl(2-morpholino))KTC[dY]-NH2; disulfide 2-7)
[1]
  IC50: 334 nM
SSTR3
  IC50: > 1000 nM

## CNCCCC[C@@H]1NC(=O)[C@@H](Cc2ccc(C(N)=O)cc2)NC(=O)[C@H](Cc2ccc(O)cc2)NC(=O)[C@H](NC(=O)[C@H](Cc2ccc(Cl)cc2)NC(=O)CCC(N)=O)CSSC[C@@H](C(=O)N[C@H](Cc2ccc(O)cc2)C(N)=O)NC(=O)[C@H]([C@@H](C)O)NC1=O [Compound 54, H2N(CO)(CH2)2(CO)-Cpa-cyclo[D-Cys-Tyr-D-Phe(4-carbamoyl)-Lys(N^ε-Me)-Thr-Cys]-D-Tyr-NH2] (Succinamoyl-[Phe(4-Cl)][dC]Y[dPhe(4-CONH2)][Lys(Me)]TC[dY]-NH2; disulfide 2-7)
[1]
  IC50: 2.33 nM

## C[C@@H](O)[C@@H]1NC(=O)[C@H](CCCCN)NC(=O)[C@@H](Cc2ccc(NC(=O)c3ccccc3)cc2)NC(=O)[C@H](Cc2ccc(O)cc2)NC(=O)[C@H](NC(=O)[C@@H](N)Cc2ccc(Cl)cc2)CSSC[C@@H](C(=O)NC(Cc2ccc(O)cc2)C(N)=O)NC1=O (stereo partly drawn) [Compound 27, H-Cpa-cyclo[DCys- Tyr-D-(4- Benzamidophenyl) Phe-Lys-Thr- Cys]-DTyr-NH2] (H-[Phe(4-Cl)][dC]Y[dPhe(4-NH2)](Bz)KTC[ξY]-NH2; disulfide 2-7)
[1]
  IC50: 34.7 nM

## CNCCCC[C@@H]1NC(=O)[C@@H](CCCNC(N)=O)NC(=O)[C@H](Cc2ccc(O)cc2)NC(=O)[C@H](NC(=O)[C@@H](N)Cc2ccc(Cl)cc2)CSSC[C@@H](C(=O)N[C@H](Cc2ccc(O)cc2)C(N)=O)NC(=O)[C@H]([C@@H](C)O)NC1=O [Compound 31, H-Cpa-cyclo[DCys- Tyr-D-Cit- (N—Me)Lys-Thr- Cys]-DTyr-NH2] (H-[Phe(4-Cl)][dC]Y[dCit][Lys(Me)]TC[dY]-NH2; disulfide 2-7)
[1]
  IC50: 70.4 nM

## CNCCCC[C@@H]1NC(=O)[C@@H](Cc2ccc(NC(=O)Nc3ccccc3)cc2)NC(=O)[C@H](Cc2ccc(O)cc2)NC(=O)[C@H](NC(=O)[C@@H](N)Cc2ccc(Cl)cc2)CSSC[C@@H](C(=O)NC(Cc2ccc(O)cc2)C(N)=O)NC(=O)[C@H]([C@@H](C)O)NC1=O (stereo partly drawn) [Compound 25, H-Cpa-cyclo[D-Cys-Tyr-D-Phe(4-phenylureido)-Lys(N^ε-Me)-Thr-Cys]-D-Tyr-NH2] (H-[Phe(4-Cl)][dC]Y[dPhe(4-NH2)]([CO-NHPh])[Lys(Me)]TC[ξY]-NH2; disulfide 2-7)
[1]
  IC50: 2.32 nM

## CNCCCC[C@@H]1NC(=O)[C@@H](Cc2ccc(C(N)=O)cc2)NC(=O)[C@H](Cc2ccc(O)cc2)NC(=O)[C@H](NC(=O)[C@@H](N)Cc2ccc(Cl)cc2)CSSC[C@@H](C(=O)NC(Cc2ccc(Cl)cc2)C(N)=O)NC(=O)[C@H]([C@@H](C)O)NC1=O (stereo partly drawn) [Compound 46, H-Cpa-cyclo[D-Cys-Tyr-D-Phe(4-carbamoyl)-Lys(N^ε-Me)-Thr-Cys]-D-Cpa-NH2] (H-[Phe(4-Cl)][dC]Y[dPhe(4-CONH2)][Lys(Me)]TC[ξPhe(4-Cl)]-NH2; disulfide 2-7)
[1]
  IC50: 0.398 nM

## C[C@@H](O)[C@@H]1NC(=O)[C@H](CCCCN)NC(=O)[C@@H](Cc2ccc(C(N)=O)cc2)NC(=O)[C@H](Cc2ccc(O)cc2)NC(=O)[C@@H](NC(=O)[C@@H](N)Cc2ccc(Cl)cc2)CSSC[C@@H](C(=O)NC(Cc2ccc(O)cc2)C(N)=O)NC1=O (stereo in doubt) [Compound 39, H-Cpa-cyclo[Cys- Tyr-D-(4- carbamoyl)Phe- Lys-Thr-Cys]- DTyr-NH2]
[1]
  IC50: > 1000 nM
